The values that follow come from patent US8987314B2, “Amide, urea or sulfone amide linked benzothiazole inhibitors of endothelial lipase” (Bristol-Myers Squibb Company, priority 2012, dated 2015).

For test [1], the target named is Endothelial lipase (EL) (Homo sapiens (Human), UniProt Q9Y5X9). Briefly: EL assay: endothelial lipase activity with fluorescent substrate A10070 in DMPG vesicles. The format is biochemical. The essentials:
(§1)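 Vesicles prepared: A10070 dried with DMPG, resuspended in HEPES pH 8.0/NaCl/EDTA, sonicated on ice. Enzyme incubated with compound 30 min at 37° C. Reaction started with 1:10 diluted vesicles. Fluorescence (490/530 nm) followed 60 min; slope from 300–900 secs gives rate.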

In test [2] the target is hepatic lipase (HL) (Homo sapiens (Human), UniProt P11150). Description: HL assay: hepatic lipase activity with fluorescent substrate A10070 in DMPG vesicles. The test is classed as biochemical. In a few lines:
as §1

[3] abbreviates: EL from conditioned media of HT-1080 cells, 30 min incubation with compound at 37° C., A10070/DMPG vesicles.
Setting [4] is: HL partially purified from conditioned media of COS cells, 30 min incubation with compound at 37° C., A10070/DMPG vesicles.

Like-named read-outs stand apart in the source and are kept apart here.

In general, IC50 refers to the concentration that gives 50% inhibition.

Endothelial lipase (EL), sequence (Q9Y5X9 21-500): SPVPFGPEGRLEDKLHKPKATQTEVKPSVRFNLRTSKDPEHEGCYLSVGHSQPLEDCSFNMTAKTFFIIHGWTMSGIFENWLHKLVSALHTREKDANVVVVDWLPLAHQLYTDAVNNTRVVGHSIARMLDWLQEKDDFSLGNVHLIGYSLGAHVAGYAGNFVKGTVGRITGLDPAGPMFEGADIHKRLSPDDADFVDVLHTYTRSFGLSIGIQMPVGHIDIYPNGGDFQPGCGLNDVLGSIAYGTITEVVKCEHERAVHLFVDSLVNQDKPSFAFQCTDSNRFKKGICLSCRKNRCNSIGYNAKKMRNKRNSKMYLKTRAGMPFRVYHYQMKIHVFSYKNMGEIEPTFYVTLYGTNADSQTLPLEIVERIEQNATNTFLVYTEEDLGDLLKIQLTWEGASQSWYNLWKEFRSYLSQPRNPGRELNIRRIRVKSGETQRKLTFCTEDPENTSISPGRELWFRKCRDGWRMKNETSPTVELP
hepatic lipase (HL), sequence (P11150 23-499, species assumed): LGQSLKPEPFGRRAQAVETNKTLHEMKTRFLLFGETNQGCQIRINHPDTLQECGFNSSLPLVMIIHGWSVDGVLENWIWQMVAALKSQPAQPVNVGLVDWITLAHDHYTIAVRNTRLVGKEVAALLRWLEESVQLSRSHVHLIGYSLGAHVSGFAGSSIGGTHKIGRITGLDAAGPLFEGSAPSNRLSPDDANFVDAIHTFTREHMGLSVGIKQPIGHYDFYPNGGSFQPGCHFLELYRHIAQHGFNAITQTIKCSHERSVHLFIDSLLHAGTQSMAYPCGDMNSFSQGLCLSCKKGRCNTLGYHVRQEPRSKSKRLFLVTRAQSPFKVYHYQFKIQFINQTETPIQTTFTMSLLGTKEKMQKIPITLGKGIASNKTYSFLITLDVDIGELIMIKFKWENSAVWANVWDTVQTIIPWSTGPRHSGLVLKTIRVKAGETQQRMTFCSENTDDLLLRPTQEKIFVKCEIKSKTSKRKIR

On to `CC(C)(O)Cn1ccc(-c2ccc3nc(C(C(=O)NCCS(N)(=O)=O)S(=O)(=O)Cc4ccc(F)cc4)sc3c2)cc1=O` (stereo not shown) [Example B363, 2-[(4-fluorophenyl)meth-anesulfonyl]-2-{6-[1-(2-hydroxy-2-methylpropyl)-2-oxo-1,2-dihydropyridin-4-yl]-1,3-benzothiazol-2-yl}-N-(2-sulfamoylethyl)acetamide], for which the IC50 stood at 0.0116 µM in test [1] and 10 µM in test [2].

Regarding `Cn1ccc(-c2ccc3nc(C(C(=O)NCCS(N)(=O)=O)S(=O)(=O)Cc4ccc(C(F)(F)F)cc4)sc3c2)cc1=O` (stereo not shown) [Example B364, 2-[6-(1-methyl-2-oxo-1,2-dihydropyridin-4-yl)-1,3-benzothiazol-2-yl]-N-(2-sulfamoylethyl)-2-{[4-(trifluoromethyl)phen-yl]methanesulfonyl}a-cetamide], the IC50 stood at 0.0283 µM in test [1] and 10 µM in test [2].

`NS(=O)(=O)CCNC(=O)C(c1nc2ccc(-c3ccccc3F)cc2s1)S(=O)(=O)Cc1ccc(OC(F)(F)F)cc1` (stereo not shown) [Example B365, 2-[6-(2-fluorophenyl)-1,3-benzothiazol-2-yl]-N-(2-sulfamoylethyl)-2-{[4-(trifluoromethoxy)phen-yl]methanesulfonyl}a-cetamide]: the concentration for half-maximal inhibition (IC50) in test [1] came to 0.0172 µM; in test [2], 0.0021 µM.

For `Cn1cc(-c2ccc3nc(C(C(=O)NCCS(N)(=O)=O)S(=O)(=O)Cc4cccc(C(F)(F)F)c4)sc3c2)ccc1=O` (stereo not shown) [Example B366, 2-[6-(1-methyl-6-oxo-1,6-dihydropyridin-3-yl)-1,3-benzothiazol-2-yl]-N-(2-sulfamoylethyl)-2-{[3-(trifluoromethyl)phen-yl]methanesulfonyl}a-cetamide], the IC50 in test [1] turned out to be 0.0044 µM; in test [2] it was 0.219 µM.

For `COCCn1ccc(-c2ccc3nc(C(C(=O)NCCS(N)(=O)=O)S(=O)(=O)Cc4ccc(C(F)(F)F)cc4)sc3c2)cc1=O` (stereo not shown) [Example B367, 2-{6-[1-(2-methoxyethyl)-2-oxo-1,2-dihydropyridin-4-yl]-1,3-benzothiazol-2-yl}-N-(2-sulfamoylethyl)-2-{[4-(trifluoromethyl)phen-yl]methanesulfonyl}a-cetamide], the concentration for half-maximal inhibition (IC50) in test [1] was found to be 0.0135 µM; in test [2], 2.21 µM.

For `Cn1ccc(-c2ccc3nc(C(C(=O)NCCS(N)(=O)=O)S(=O)(=O)Cc4ccc(OC(F)(F)F)cc4)sc3c2)cc1=O` (stereo not shown) [Example B368, 2-[6-(1-methyl-2-oxo-1,2-dihydropyridin-4-yl)-1,3-benzothiazol-2-yl]-N-(2-sulfamoylethyl)-2-{[4-(trifluoromethoxy)phen-yl]methanesulfonyl}a-cetamide], the IC50 in test [1] came out at 0.0158 µM; in test [2], 1.6 µM.

As to `CS(=O)(=O)C(C(=O)NCCS(N)(=O)=O)c1nc2cc(-c3ccnc(F)c3)ccc2s1` (stereo not shown) [Example B369, 2-[5-(2-fluoropyridin-4-yl)-1,3-benzothiazol-2-yl]-2-methanesulfonyl-N-(2-sulfamoylethyl)acetamide], the values for the IC50 in test [1] and in test [2] were 0.0015 µM and 0.415 µM, respectively.

With `COCCOc1ccc(-c2ccc3sc(C(C(=O)NCCS(N)(=O)=O)S(C)(=O)=O)nc3c2)cc1` (stereo not shown) [Example B370, 2-methanesulfonyl-2-{5-[4-(2-methoxyethoxy)phen-yl]-1,3-benzothiazol-2-yl}-N-(2-sulfamoylethyl)a-cetamide], the IC50 in test [1] was found to be 0.0018 µM; in test [2] it was 0.0155 µM.

Turning to `CC(=O)Nc1ccc(-c2ccc3sc(C(C(=O)NCCS(N)(=O)=O)S(C)(=O)=O)nc3c2)cc1` (stereo not shown) [Example B371, 2-[5-(4-acetamidophenyl)-1,3-benzothiazol-2-yl]-2-methanesulfonyl-N-(2-sulfamoylethyl)acetamide], the IC50 in test [1] was 0.003 µM; in test [2], 0.0963 µM.

In the case of `CS(=O)(=O)C(C(=O)NCCS(N)(=O)=O)c1nc2cc(-c3ccc(F)nc3)ccc2s1` (stereo not shown) [Example B372, 2-[5-(6-fluoropyridin-3-yl)-1,3-benzothiazol-2-yl]-2-methanesulfonyl-N-(2-sulfamoylethyl)acetamide], the 50% inhibitory concentration (IC50) amounted to 0.0025 µM in test [1] and 0.124 µM in test [2].

On to `CS(=O)(=O)C(C(=O)NCCS(N)(=O)=O)c1nc2cc(-c3cnoc3)ccc2s1` (stereo not shown) [Example B373, 2-methanesulfonyl-2-[5-(1,2-oxazol-4-yl)-1,3-benzothiazol-2-yl]-N-(2-sulfamoylethyl)acetamide], for which the figures for the IC50 in test [1] and in test [2] were 0.0033 µM and 0.0457 µM, respectively.

Turning to `CS(=O)(=O)C(C(=O)NCCS(N)(=O)=O)c1nc2cc(-c3ncccn3)ccc2s1` (stereo not shown) [Example B374, 2-methanesulfonyl-2-[5-(pyrimidin-2-yl)-1,3-benzothiazol-2-yl]-N-(2-sulfamoylethyl)acetamide], the figures for the IC50 in test [1] and in test [2] were 0.0008 µM and 0.0237 µM, respectively.

Turning to `NS(=O)(=O)CCNC(=O)C(c1nc2ccc(-c3ccnc(O)c3F)cc2s1)S(=O)(=O)CCC(F)(F)F` (stereo not shown) [Example B375, 2-[6-(3-fluoro-2-hydroxy-pyridin-4-yl)-1,3-benzothiazol-2-yl]-N-(2-sulfamoylethyl)-2-(3,3,3-trifluoropropanesulfonyl)a-cetamide], the figures for the IC50 in test [1] and in test [2] were 0.014 µM and 0.787 µM, respectively.

Regarding `COCc1ccc(-c2ccc3sc(C(C(=O)NCCS(N)(=O)=O)S(C)(=O)=O)nc3c2)cc1` (stereo not shown) [Example B378, 2-methanesulfonyl-2-{5-[4-(methoxymethyl)phen-yl]-1,3-benzothiazol-2-yl}-N-(2-sulfamoylethyl)acetamide], the IC50 in test [1] is 0.0007 µM; in test [2], 0.0067 µM.

As for `CC(=O)Nc1cccc(-c2ccc3sc(C(C(=O)NCCS(N)(=O)=O)S(C)(=O)=O)nc3c2)c1` (stereo not shown) [Example B379, 2-[5-(3-acetamidophenyl)-1,3-benzothiazol-2-yl]-2-methanesulfonyl-N-(2-sulfamoylethyl)acetamide], the half-maximal inhibitory concentration (IC50) was found to be 0.0005 µM in test [1] and 0.0837 µM in test [2].

For `CS(=O)(=O)C(C(=O)NCCS(N)(=O)=O)c1nc2cc(-c3cccc(F)n3)ccc2s1` (stereo not shown) [Example B380, 2-[5-(6-fluoropyridin-2-yl)-1,3-benzothiazol-2-yl]-2-methanesulfonyl-N-(2-sulfamoylethyl)acetamide], the 50% inhibitory concentration (IC50) came to 0.002 µM in test [1] and 0.0185 µM in test [2].

`CS(=O)(=O)C(C(=O)NCCS(N)(=O)=O)c1nc2cc(-c3ccncc3F)ccc2s1` (stereo not shown) [Example B381, 2-[5-(3-fluoropyridin-4-yl)-1,3-benzothiazol-2-yl]-2-methanesulfonyl-N-(2-sulfamoylethyl)acetamide]: the figures for the concentration for half-maximal inhibition (IC50) in test [1] and in test [2] were 0.0011 µM and 0.0402 µM, respectively.

For `CC(C)(C)OC(=O)N1CC=C(c2ccc3sc(C(C(=O)NCCS(N)(=O)=O)S(C)(=O)=O)nc3c2)CC1` (stereo not shown) [Example B382, tert-butyl 4-(2-{methanesulfonyl[(2-sulfa-moylethyl)carbamoyl]meth-yl}-1,3-benzothiazol-5-yl)-1,2,3,6-tetrahydropyridine-1-carboxylate], the IC50 in test [1] is 0.0031 µM; in test [2], 0.0365 µM.

As for `CS(=O)(=O)C(C(=O)NCCS(N)(=O)=O)c1nc2cc(-c3cccnc3F)ccc2s1` (stereo not shown) [Example B383, 2-[5-(2-fluoropyridin-3-yl)-1,3-benzothiazol-2-yl]-2-methanesulfonyl-N-(2-sulfamoylethyl)acetamide], the IC50 in test [1] came to 0.0007 µM; in test [2], 0.013 µM.

Turning to `Cn1nccc1-c1ccc2sc(C(C(=O)NCCS(N)(=O)=O)S(C)(=O)=O)nc2c1` (stereo not shown) [Example B384, 2-methanesulfonyl-2-[5-(1-methyl-1H-pyrazol-5-yl)-1,3-benzothiazol-2-yl]-N-(2-sulfamoylethyl)a-cetamide], the IC50 in test [1] was determined as 0.0082 µM; in test [2] it was 0.828 µM.

Take `CS(=O)(=O)C(C(=O)NCCS(N)(=O)=O)c1nc2cc(-c3ccc(F)nc3F)ccc2s1` (stereo not shown) [Example B385, 2-[5-(2,6-difluoropyridin-3-yl)-1,3-benzothiazol-2-yl]-2-methanesulfonyl-N-(2-sulfamoylethyl)a-cetamide]: the IC50 in test [1] was determined as 0.0035 µM; in test [2] it was 0.0205 µM.

For the compound `CC(C)(C)OC(=O)c1ccc(-c2ccc3nc(C(C(=O)N[C@@H]4CCNC4=O)S(=O)(=O)Cc4ccccc4)sc3c2)cc1` (stereo partly drawn) [Example B386, tert-butyl 4-[2-({[(3R)-2-oxopyrrolidin-3-yl]carbamoyl}(phenyl-methanesulfonyl)methyl)-1,3-benzothiazol-6-yl]benzoate], the IC50 worked out at 0.0171 µM in test [1] and 0.0143 µM in test [2].

On to `CC(C)(O)Cn1ccc(-c2ccc3sc(C(C(=O)NCCS(N)(=O)=O)S(C)(=O)=O)nc3c2)cc1=O` (stereo not shown) [Example B389, 2-{5-[1-(2-hydroxy-2-methylpropyl)-2-oxo-1,2-dihydropyridin-4-yl]-1,3-benzothiazol-2-yl}-2-methanesulfonyl-N-(2-sulfamoylethyl)acetamide], for which the half-maximal inhibitory concentration (IC50) in test [1] is 0.002 µM; in test [2] it was 6.3 µM.

As to `CC(C)(O)Cn1cc(-c2ccc3sc(C(C(=O)NCCS(N)(=O)=O)S(C)(=O)=O)nc3c2)ccc1=O` (stereo not shown) [Example B390, 2-{5-[1-(2-hydroxy-2-methylpropyl)-6-oxo-1,6-dihydropyridin-3-yl]-1,3-benzothiazol-2-yl}-2-methanesulfonyl-N-(2-sulfamoylethyl)acetamide], the IC50 is 0.0035 µM in test [1] and 10 µM in test [2].

Regarding `CC(C)(C)OC(=O)c1ccc2sc(C(C(=O)NCCS(N)(=O)=O)S(C)(=O)=O)nc2c1` (stereo not shown) [Example B391, tert-Butyl 2-(1-(methylsulfonyl)-2-oxo-2-((2-sulfamoylethyl)amino)ethyl)-1,3-benzothiazole-5-carboxylate], the IC50 in test [1] (setting [3]) came out at 0.025 µM; in test [2] (setting [4]), 0.0534 µM.

Consider `CS(=O)(=O)C(C(=O)NCCS(N)(=O)=O)c1nc2cc(C(=O)O)ccc2s1` (stereo not shown) [Example B392, 2-(1-(Methylsulfonyl)-2-oxo-2-((2-sulfamoylethyl)amino)ethyl)benzo[d]thiazole-5-carboxylic acid], for which the IC50 in test [1] (setting [3]) worked out at 0.0031 µM; in test [2] (setting [4]), 0.0927 µM.
